Laboratory results reported in patent publication US20240360143A1, “[1,2,4]TRIAZOLO[4,3-A]PYRIMIDIN-7(8H)-ONE AS MITOCHONDRIAL PYRUVATE CARRIER INHIBITORS FOR USE IN THE TREATMENT OF CANCER” (MPC THERAPEUTICS SA, priority 2021, published 2024).

Columns and labels:
[1] = tested on: CD8 T cells (OT1 splenocytes); assay: In vitro priming of CD8 T cells (OT1 splenocytes), memory marker expression by flow cytometry; type: cell-based, mouse; conditions: day 7, highest doses
Experimental: OT1 splenocytes were cultured for 3 days at a concentration of 10^6 cells per mL in RPMI medium (Gibco 61870-01) supplemented with 10% FBS, (Gibco 10270-106), 1% Penicillin/Streptomycin (Gibco 15070-063), 50 μM ß-mercaptoethanol, 1% HEPES (Gibco 15630-080), 1× Non-essential amino acids (Gibco 11140-035), 1% L-glutamine (Gibco 25030-081), 1 mM Sodium Pyruvate (Gibco 11360-039). Cells were additionally supplemented with hIL-2 100 U/ml (Glaxo-IMB), ovalbumin N4 peptide (257-264) 1 μg/ml (model peptide antigen from ovalbumin) and either different concentrations of Compound 45 or 47 or with their solvent DMSO as a control. At day 3, splenocytes were collected, washed and split, and cells were cultured for 4 additional days with 100 U/ml hIL-2 and hIL-7 (Peprotech 200-07) supplemented either with Compound 45 or 47 or DMSO. At day 7, flow cytometry analyses were performed for surface marker expression.
To evaluate the effects of MPC inhibition on T cell differentiation, OTI splenocytes were cultured in the presence of 1 μg/ml ovalbumin-derived N4 peptide, 100 IU/ml recombinant human IL-2 (rhIL-2) and the MPC inhibitors Compound 45 or 47 or control DMSO for 3 days. The cells were cultured for 4 more days in the presence of 100 IU/ml IL-2 and 10 ng/ml rhIL-7 (FIG. 1A) and the inhibitors or DMSO. When analyzing the surface expression of the central memory marker CD62L (FIG. 1B) and the pro-survival receptor CD127 (FIG. 1C) by flow cytometry on day 7, an increase in cells treated with the highest doses of compounds of the invention was observed compared to DMSO.

B16-OVA melanoma = assay: Adoptive cell transfer of compound-treated OT1 CD8 T cells in B16-OVA melanoma tumor model; type: in vivo, mouse
Experimental: Activated CD45.1+OT-1 splenocytes were culture in vitro for 7 days as described above, collected and purified on a Ficoll gradient, allowing to separate dead and live splenocytes. Live splenocytes were counted with Trypan blue stain 0.4%. 100′000 or 2′000′000 live splenocytes were transferred into CD45.2+ host mice by tail vein injection.
B16-OVA cells were cultured in DMEM (GIBCO) with 10% FBS and 1% P/S before their subcutaneous injection into the mouse flank. Each mouse received 100′000 cells in a volume of 200 μl of PBS. 6 days after B16-OVA cells injection, tumors were measured, mice were randomized and lymphodepleted by irradiation (5 Gray). 7 days after B16-Ova injection, mice were adoptively transferred with the ACT protocol described previously. Following the ACT, mice received a vaccination of CpG (50 μg/mouse) and N4 Ova peptide (10 μg/mouse) diluted in PBS to obtain a total volume of 100 μl/mouse, injected subcutaneously at the tail base. Tumors were measured every 2 days and the tumor volume was calculated according to the formula: V=π×[d2×D]/6, where d is the minor tumor axis and D is the major tumor axis. At day 26 days post-tumor engraftment, tumors and spleens were dissected were then stained for flow cytometry analyses.
Briefly, 105 ovalbumin-expressing B16 melanoma cells were injected subcutaneously in 6-week-old mice. At day 6 post-engraftment, when a palpable tumor was present, mice were irradiated with 5Gy. The next day 105 Compound 45- or DMSO-treated OT1 cells were intravenously injected, followed by a subcutaneous vaccination of 50 μg CpG and 10 μg N4 Ova peptide (FIG. 2A). […] When analysing the blood 9 days post-adoptive cell transfer, one could observe an increase in number of transferred cells when treated in vitro with Compound 45 as compared to DMSO (FIG. 2D). The phenotype of the Compound 45-treated cells was biased towards memory, as there was a reduced percentage of short-lived effector T cells (FIG. 2E) and an increase in memory-precursor effector T cells and cells with a central memory phenotype (FIGS. 2F and 2G). When analysing the tumor upon dissection, more Compound 45-treated T cells were infiltrating the tumor (FIG. 2H).
In order to observe a stronger anti-tumor response of the transferred OT1 T cells, the previous experiment was repeated by transferring 2×10^6 DMSO- or Compound 45-treated OT1 T cells, instead of only 10^5 (FIG. 3A). […] When analysing the tumor upon dissection, no difference in T cell infiltration was observed (FIG. 3D). […] There was however no difference in terminally exhausted or progenitor exhausted T cells (FIGS. 3F and 3G). […] There was no difference in CD107a expression (FIG. 3O).

O=c1cc(Cc2ccccc2)n2c(SCc3c(F)cccc3Cl)nnc2[nH]1 [Compound 45, 5-benzyl-3-[(2-chloro-6-fluorobenzyl)sulfanyl][1,2,4]triazolo[4,3-a]pyrimidin-7 (8H)-one]
cells positive for central memory marker CD62L ([1]; vs DMSO (FIG. 1B)): increase | cells positive for pro-survival receptor CD127 ([1]; vs DMSO (FIG. 1C)): increase | number of treated T cells in the spleen (B16-OVA melanoma; 2×10^6 cells, spleen (FIG. 3H)): decreased | central memory phenotype in the spleen (B16-OVA melanoma; 2×10^6 cells, spleen (FIG. 3I)): increased | TCF1 expression in the spleen (B16-OVA melanoma; 2×10^6 cells, spleen (FIG. 3J)): trend towards increased | terminally exhausted T cells (B16-OVA melanoma; 2×10^6 cells, tumor (FIG. 3F)): no difference | progenitor exhausted T cells (B16-OVA melanoma; 2×10^6 cells, tumor (FIG. 3G)): no difference | IFNy expression (B16-OVA melanoma; 2×10^6 cells, tumor cells restimulated with OVA peptide (FIG. 3K)): did not show difference | TNF expression (B16-OVA melanoma; 2×10^6 cells, tumor cells restimulated with OVA peptide (FIG. 3L)): did not show difference | IL2 expression (B16-OVA melanoma; 2×10^6 cells, tumor cells restimulated with OVA peptide (FIG. 3M)): did not show difference | Granzyme B expression (B16-OVA melanoma; 2×10^6 cells, tumor cells restimulated with OVA peptide (FIG. 3N)): increased | CD107a expression (B16-OVA melanoma; 2×10^6 cells, tumor cells restimulated with OVA peptide (FIG. 3O)): no difference | T cell infiltration in tumor (B16-OVA melanoma; 2×10^6 cells, tumor upon dissection (FIG. 3D)): no difference | exhausted tumor infiltrating T cells (B16-OVA melanoma; 2×10^6 cells, vs DMSO (FIG. 3E)): more exhausted | B16 tumor growth (B16-OVA melanoma; 2×10^6 treated OT1 cells transferred, vs DMSO (FIG. 3B)): strongly reduced | B16 tumor weight (B16-OVA melanoma; 2×10^6 treated OT1 cells, vs DMSO (FIG. 3C)): strongly reduced | percentage of short-lived effector T cells (B16-OVA melanoma; 10^5 cells, blood 9 days post-ACT (FIG. 2E)): reduced | memory-precursor effector T cells (B16-OVA melanoma; 10^5 cells, blood 9 days post-ACT (FIG. 2F)): increase | cells with a central memory phenotype (B16-OVA melanoma; 10^5 cells, blood 9 days post-ACT (FIG. 2G)): increase | number of transferred cells in blood (B16-OVA melanoma; 10^5 cells, blood 9 days post-ACT, vs DMSO (FIG. 2D)): increase | number of treated T cells in the spleen (B16-OVA melanoma; 10^5 cells, spleen (FIG. 2L)): increased | central memory phenotype in the spleen (B16-OVA melanoma; 10^5 cells, spleen (FIG. 2M)): increased | TCF1 expression in the spleen (B16-OVA melanoma; 10^5 cells, spleen (FIG. 2N)): not significantly altered | IFNy expression (B16-OVA melanoma; 10^5 cells, tumor cells restimulated with OVA peptide (FIG. 2O)): did not show a significant increase | TNF expression (B16-OVA melanoma; 10^5 cells, tumor cells restimulated with OVA peptide (FIG. 2P)): did not show a significant increase | IL2 expression (B16-OVA melanoma; 10^5 cells, tumor cells restimulated with OVA peptide (FIG. 2Q)): did not show a significant increase | Granzyme B expression (B16-OVA melanoma; 10^5 cells, tumor cells restimulated with OVA peptide (FIG. 2R)): did not show a significant increase | expression of CD107a (LAMP1) (B16-OVA melanoma; 10^5 cells, tumor cells restimulated with OVA peptide (FIG. 2S)): increased | treated T cells infiltrating the tumor (B16-OVA melanoma; 10^5 cells, tumor upon dissection (FIG. 2H)): more | exhausted tumor infiltrating T cells (B16-OVA melanoma; 10^5 cells, vs DMSO (FIG. 2I)): not significantly more or less exhausted | B16 tumor growth (B16-OVA melanoma; 10^5 treated OT1 cells transferred, vs DMSO (FIG. 2B)): reduced | Tumor weight (B16-OVA melanoma; 10^5 treated OT1 cells, vs DMSO (FIG. 2C)): not significantly reduced
